Values after ≈ are worked out from the molar mass of the structure shown.
Legend:
[1] = system: isolated perfused rat heart; assay: Global ischaemia/reperfusion of isolated perfused (Langendorff) rat heart; conditions: 10 μM AOL pretreatment, 30 min ischaemia
Procedure: The consequences of 30 minutes' global ischaemia followed by 120 minutes' reperfusion (FIG. 11) on contractility and tissue viability were studied on isolated perfused rat heart pretreated or not (control vehicle) with 10 μM AOL.
All procedures conformed to the UK Animals (Scientific Procedures) Act 1986 and the Guide for the Care and Use of Laboratory Animals published by the National Institutes of Health (NIH Publication No. 85-23. revised 1996). Male Wistar rats (250-300 g) were anesthetized by 3% isoflurane, heparinized and euthanized by a lethal IP injection of pentobarbital (130 mg/kg). Hearts (˜0.95 g of fresh weight) were rapidly harvested and placed into ice cold Krebs-Henseleit buffer containing (in mmol/L): NaCl 118, NaHCO3 25, KCl 4.8, KH2PO4 1.2, MgSO4 1.2, glucose 11 and CaCl2 1.8; gassed with 95% O2/5% CO2 at 37° C. (pH 7.4). Langendorff heart perfusions were performed (Garlid, K. D. et al., 2006. Am. J. Physiol. Heart Circ. Physiol. 291(1):H152-60) and contractility was assessed by continuous measurement of the rate pressure product (RPP) thanks to a balloon placed in the left ventricle and connected to a pressure transducer. Hearts were perfused in a constant flow mode (12 mL/min). […]

[2] = stated as known; cited from earlier work
[3] = Solubility limit in Kolliphor; format: physicochemical
[4] = system: TH-positive neurons in the substantia nigra of MPTP-treated mice; assay: Sub-chronic MPTP mouse model of Parkinson's disease, TH-positive neuron count; format: in vivo; conditions: 5 mg/kg ip, 11 consecutive days; p<0.01
Procedure: In this study, the potential neuroprotective effects of AOL were assessed by counting the number of tyrosine hydroxylase (TH)-positive neurons in the substantia nigra (SN) in the sub-chronic 1-methyl-4-phenyl-1,2,3,6-tetrahydropyridine (MPTP) mouse model of Parkinson's disease. Mice were treated with AOL (5 mg/kg; ip) or vehicle for 11 consecutive days. MPTP (20 mg/kg; ip) or saline was administered on treatment days 4-8. All mice were killed on day 12 following final administration of treatment.
For vehicle conditions, the test item was dissolved in 0.5% DMSO/0.95% Tween 20 in saline while AOL was administered intraperitoneally (i.p.) at the dose of 5 mg/kg. […]
Unbiased stereological analysis was used to estimate the number of TH-immunopositive (TH+) neurons (Mercator, Explora Nova, La Rochelle, France). The boundaries of the SN were determined by examining the size and shape of the different TH+ neuronal groups. The volume was calculated by using the formula: V=ΣS td; where ΣS is the sum of surface areas, t is the average section thickness and d is the number of slices between two consecutive sections measured. […] The following formula was used to estimate the number of TH+ neurons: N=V(SN) (ΣQ−/ΣV(dis)); where N is the estimation of cell number, V is the volume of the SN, ΣQ− is the number of cells counted in the dissectors, and ΣV(dis) is the total volume of all the dissectors. […]

SMILES: COc1ccc(-c2cc(=S)ss2)cc1 [AOL, 5-(4-methoxyphenyl)-3H-1,2-dithiole-3-thione]
- infarcted tissue rescued (TTC staining) ([1]; 120 min reperfusion): about 50%
- heart contractility (rate pressure product, RPP) versus control hearts ([1]; after 2 hours of reperfusion): about three times higher
- bioavailability [2]: very short
- solubility limit [3]: 2800 µM (≈ 673 µg/mL)
- increase in number of TH+ cells in the SN compared to vehicle in MPTP-treated mice [4]: 44%

Source: US11318113B2, “Compounds for the treatment of diseases linked to mitochondrial reactive oxygen species (ROS) production” (OP2 DRUGS, priority 2015, dated 2022)
